Reference: publication PMC7445743 (Journal of Medicinal Chemistry, 2020)
Where a name gives a salt, the structure may show the parent alone.

Columns and labels:
DAPK3 = DAPK3 (Homo sapiens, UniProt O43293); conditions: supplement CSV
PAK4 = PAK4 (Homo sapiens, UniProt O96013); conditions: supplement CSV
DCLK1 = target: T1, DCLK1 (Homo sapiens, UniProt O15075); conditions: supplement CSV
T1 sequence (O15075 1-740): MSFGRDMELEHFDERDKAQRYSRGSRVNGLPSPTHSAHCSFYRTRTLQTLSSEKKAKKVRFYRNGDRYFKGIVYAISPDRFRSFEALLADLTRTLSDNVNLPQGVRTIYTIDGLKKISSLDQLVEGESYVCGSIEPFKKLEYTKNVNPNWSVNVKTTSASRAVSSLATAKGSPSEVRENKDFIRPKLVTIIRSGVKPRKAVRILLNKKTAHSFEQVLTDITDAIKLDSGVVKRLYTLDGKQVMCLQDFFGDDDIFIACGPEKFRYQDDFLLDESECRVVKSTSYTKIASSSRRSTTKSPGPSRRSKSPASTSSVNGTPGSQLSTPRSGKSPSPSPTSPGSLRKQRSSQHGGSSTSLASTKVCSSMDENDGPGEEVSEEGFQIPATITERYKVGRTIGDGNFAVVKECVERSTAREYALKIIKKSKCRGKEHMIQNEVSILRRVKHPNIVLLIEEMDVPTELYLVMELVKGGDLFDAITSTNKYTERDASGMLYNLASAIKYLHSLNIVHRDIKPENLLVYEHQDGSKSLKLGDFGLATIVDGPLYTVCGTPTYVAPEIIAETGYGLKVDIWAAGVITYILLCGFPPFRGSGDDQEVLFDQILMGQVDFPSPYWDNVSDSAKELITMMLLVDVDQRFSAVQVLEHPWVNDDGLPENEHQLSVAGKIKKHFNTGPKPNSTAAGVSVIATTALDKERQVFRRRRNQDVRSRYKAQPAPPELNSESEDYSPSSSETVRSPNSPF

GSK3β = GSK3β (Homo sapiens, UniProt P49841); conditions: supplement CSV
CaMK4 = target: T2, CaMK4 (Homo sapiens, UniProt Q16566); conditions: supplement CSV
T2 sequence (Q16566 1-473): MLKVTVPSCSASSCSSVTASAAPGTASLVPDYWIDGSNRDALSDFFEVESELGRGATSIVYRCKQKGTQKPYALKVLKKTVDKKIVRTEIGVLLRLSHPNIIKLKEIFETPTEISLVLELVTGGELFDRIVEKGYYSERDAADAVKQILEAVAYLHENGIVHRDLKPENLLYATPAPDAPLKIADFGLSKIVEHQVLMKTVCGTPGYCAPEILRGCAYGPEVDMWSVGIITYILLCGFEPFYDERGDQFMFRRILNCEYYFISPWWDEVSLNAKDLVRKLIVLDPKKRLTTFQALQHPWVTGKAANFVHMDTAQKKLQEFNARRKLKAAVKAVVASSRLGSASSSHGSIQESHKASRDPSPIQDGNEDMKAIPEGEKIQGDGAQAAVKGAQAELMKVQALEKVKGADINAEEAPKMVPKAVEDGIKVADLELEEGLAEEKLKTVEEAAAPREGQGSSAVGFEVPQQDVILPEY

CAMK2A = CAMK2A (Homo sapiens, UniProt Q9UQM7); conditions: supplement CSV
CAMK1G = CAMK1G (Homo sapiens, UniProt Q96NX5); conditions: supplement CSV
[1] = test system: kinase panel (468 Assays Tested); assay: Pan-kinome selectivity, competitive binding assay (KINOMEscan); conditions: for S-Score(35): 1 μM
ABL = ABL (Homo sapiens, UniProt P00519); conditions: supplement CSV
PKNB(M.tuberculosis) = target: T3, PKNB(M.tuberculosis) (Mycobacterium tuberculosis, UniProt P9WI81); assay: KINOMEscan; assay type: binding
T3 construct: purchased DiscoverX (Eurofins) KINOMEscan scanMAX; first lines in-house DSF / ADP-Glo

PIM1 = PIM1 (Homo sapiens, UniProt P11309); conditions: supplement CSV
DAPK1 = DAPK1 (Homo sapiens, UniProt P53355); conditions: supplement CSV
SYK = SYK (Homo sapiens, UniProt P43405); conditions: supplement CSV
CK2a = CK2a (Homo sapiens, UniProt P68400); conditions: supplement CSV
CK2a, sequence (P68400 whole entry): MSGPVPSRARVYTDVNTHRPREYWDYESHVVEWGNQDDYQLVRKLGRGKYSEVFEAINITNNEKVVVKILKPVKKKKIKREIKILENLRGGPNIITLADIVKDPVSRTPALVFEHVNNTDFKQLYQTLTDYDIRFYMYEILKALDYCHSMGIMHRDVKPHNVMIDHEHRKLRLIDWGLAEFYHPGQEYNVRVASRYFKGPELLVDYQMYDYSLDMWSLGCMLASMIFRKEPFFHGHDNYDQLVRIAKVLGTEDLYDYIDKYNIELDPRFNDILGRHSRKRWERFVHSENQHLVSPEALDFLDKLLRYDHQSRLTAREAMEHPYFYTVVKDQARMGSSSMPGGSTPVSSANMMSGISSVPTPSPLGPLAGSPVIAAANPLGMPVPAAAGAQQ

GSK3β, sequence (P49841 whole entry, species assumed): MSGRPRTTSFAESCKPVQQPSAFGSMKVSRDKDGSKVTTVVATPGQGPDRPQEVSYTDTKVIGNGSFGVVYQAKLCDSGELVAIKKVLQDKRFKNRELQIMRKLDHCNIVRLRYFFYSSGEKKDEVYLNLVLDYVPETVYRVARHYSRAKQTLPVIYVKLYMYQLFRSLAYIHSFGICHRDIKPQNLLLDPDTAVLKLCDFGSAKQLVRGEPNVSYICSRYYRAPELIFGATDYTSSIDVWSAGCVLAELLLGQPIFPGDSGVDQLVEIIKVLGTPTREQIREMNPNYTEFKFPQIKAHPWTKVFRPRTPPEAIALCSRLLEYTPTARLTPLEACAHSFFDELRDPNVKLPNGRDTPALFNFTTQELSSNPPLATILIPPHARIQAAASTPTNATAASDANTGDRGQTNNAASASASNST
CAMK1G, sequence (Q96NX5 whole entry): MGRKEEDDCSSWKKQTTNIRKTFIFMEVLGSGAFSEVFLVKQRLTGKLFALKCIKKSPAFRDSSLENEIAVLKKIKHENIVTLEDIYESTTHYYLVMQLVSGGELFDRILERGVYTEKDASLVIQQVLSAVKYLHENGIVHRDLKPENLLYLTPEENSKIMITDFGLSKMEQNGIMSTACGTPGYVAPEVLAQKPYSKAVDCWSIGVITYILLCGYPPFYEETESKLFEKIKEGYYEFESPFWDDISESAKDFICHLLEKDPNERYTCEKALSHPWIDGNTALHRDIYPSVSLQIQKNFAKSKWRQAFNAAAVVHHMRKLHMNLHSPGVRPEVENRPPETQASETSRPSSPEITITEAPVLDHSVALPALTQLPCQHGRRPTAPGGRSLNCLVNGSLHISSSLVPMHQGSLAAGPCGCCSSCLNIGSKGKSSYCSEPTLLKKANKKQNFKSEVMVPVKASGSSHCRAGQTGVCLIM
CAMK2A, sequence (Q9UQM7 whole entry): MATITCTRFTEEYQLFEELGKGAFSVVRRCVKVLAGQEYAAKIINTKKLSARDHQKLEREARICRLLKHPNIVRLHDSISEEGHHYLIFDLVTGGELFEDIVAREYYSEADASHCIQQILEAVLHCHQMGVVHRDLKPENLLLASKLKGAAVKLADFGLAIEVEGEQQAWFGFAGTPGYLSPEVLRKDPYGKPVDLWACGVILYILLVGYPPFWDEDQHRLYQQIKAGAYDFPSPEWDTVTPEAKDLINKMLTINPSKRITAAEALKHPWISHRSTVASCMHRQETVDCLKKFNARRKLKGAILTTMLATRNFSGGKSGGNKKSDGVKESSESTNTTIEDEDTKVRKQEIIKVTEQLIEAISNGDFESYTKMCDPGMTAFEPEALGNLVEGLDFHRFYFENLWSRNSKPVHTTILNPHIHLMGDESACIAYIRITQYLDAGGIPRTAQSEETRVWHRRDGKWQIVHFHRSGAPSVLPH
ABL, sequence (P00519 whole entry, species assumed): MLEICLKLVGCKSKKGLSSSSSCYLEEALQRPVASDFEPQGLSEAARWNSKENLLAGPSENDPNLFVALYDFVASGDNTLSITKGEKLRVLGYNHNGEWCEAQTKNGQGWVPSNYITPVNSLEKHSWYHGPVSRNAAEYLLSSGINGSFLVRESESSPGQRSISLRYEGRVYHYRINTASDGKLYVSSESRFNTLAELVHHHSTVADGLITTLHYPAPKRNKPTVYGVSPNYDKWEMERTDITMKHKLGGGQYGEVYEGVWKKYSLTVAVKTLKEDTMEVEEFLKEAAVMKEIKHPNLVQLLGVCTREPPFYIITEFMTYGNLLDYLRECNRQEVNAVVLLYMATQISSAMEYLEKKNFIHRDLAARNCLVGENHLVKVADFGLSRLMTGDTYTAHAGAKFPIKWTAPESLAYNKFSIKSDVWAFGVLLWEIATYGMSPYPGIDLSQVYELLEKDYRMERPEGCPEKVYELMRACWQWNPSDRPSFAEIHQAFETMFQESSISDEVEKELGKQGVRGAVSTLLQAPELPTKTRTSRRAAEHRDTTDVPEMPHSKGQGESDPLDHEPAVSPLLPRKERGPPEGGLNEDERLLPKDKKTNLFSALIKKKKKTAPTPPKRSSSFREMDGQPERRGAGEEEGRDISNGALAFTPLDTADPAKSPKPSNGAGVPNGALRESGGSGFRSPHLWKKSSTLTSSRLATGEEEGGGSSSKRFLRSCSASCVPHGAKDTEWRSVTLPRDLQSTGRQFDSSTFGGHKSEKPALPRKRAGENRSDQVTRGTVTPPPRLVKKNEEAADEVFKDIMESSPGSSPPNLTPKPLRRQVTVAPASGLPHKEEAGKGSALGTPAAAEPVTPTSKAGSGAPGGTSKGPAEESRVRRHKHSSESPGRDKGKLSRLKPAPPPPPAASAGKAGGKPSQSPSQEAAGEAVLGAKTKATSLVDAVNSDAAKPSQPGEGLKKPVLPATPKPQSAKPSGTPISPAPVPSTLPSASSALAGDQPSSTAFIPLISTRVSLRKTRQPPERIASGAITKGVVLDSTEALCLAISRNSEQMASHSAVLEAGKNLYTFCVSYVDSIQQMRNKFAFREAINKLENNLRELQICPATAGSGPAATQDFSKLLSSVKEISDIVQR
PAK4, sequence (O96013 whole entry): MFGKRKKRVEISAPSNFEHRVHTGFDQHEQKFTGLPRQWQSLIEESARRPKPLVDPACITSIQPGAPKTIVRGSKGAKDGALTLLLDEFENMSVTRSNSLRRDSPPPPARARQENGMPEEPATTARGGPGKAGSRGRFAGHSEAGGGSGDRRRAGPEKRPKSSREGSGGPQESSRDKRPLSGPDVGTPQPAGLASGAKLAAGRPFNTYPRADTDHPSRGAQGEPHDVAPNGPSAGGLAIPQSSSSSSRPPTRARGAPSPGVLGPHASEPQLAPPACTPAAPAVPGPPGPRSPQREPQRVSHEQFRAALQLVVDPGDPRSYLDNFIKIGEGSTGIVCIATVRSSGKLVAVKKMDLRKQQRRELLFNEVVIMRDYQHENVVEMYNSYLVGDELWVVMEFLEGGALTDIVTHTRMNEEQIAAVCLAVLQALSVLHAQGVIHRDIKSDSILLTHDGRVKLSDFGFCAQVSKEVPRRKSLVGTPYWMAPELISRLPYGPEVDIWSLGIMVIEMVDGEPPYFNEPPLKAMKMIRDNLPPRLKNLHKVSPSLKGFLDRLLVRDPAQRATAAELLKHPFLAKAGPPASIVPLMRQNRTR
DAPK3, sequence (O43293 whole entry): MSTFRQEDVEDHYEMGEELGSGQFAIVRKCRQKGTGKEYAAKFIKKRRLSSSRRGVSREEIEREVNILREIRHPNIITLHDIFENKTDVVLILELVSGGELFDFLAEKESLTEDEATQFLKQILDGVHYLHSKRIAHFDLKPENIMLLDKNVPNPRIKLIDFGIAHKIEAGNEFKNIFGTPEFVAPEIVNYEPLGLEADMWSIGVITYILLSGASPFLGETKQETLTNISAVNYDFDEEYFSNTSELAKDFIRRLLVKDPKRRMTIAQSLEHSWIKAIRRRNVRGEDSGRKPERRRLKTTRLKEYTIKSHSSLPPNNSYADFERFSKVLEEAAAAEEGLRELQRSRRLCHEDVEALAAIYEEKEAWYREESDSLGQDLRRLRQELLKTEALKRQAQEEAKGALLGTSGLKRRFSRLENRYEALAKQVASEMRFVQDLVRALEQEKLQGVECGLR
T3 sequence (P9WI81 whole entry): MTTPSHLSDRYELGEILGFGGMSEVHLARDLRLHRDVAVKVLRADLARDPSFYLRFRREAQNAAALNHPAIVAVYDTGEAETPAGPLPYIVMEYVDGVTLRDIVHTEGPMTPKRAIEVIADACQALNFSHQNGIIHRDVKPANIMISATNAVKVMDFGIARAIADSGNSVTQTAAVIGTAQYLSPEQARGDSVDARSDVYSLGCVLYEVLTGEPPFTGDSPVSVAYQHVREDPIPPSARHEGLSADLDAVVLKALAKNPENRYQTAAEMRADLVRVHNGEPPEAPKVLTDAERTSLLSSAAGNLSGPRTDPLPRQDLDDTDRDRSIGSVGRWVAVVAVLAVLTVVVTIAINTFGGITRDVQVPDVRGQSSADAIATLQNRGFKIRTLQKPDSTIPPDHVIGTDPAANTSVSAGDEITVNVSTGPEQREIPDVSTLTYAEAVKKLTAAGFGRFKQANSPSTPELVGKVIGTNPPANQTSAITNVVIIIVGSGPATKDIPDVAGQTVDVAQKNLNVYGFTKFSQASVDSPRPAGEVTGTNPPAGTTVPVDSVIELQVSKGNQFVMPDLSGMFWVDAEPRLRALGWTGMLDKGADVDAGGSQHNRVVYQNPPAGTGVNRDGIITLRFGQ
PIM1, sequence (P11309 whole entry): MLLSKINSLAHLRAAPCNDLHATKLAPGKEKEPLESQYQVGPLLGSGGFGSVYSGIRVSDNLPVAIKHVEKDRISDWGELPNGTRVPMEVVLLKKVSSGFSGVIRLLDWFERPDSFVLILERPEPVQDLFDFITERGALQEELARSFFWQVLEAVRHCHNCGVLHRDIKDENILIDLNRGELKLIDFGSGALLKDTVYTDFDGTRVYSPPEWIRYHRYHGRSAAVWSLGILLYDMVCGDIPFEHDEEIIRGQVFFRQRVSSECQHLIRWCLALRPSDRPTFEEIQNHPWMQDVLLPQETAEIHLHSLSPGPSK

SMILES	DAPK3 Tm (DAPK3)	PAK4 Tm (PAK4)	DCAMKL1 Tm (DCLK1)	GSK3B Tm (GSK3β)	CAMK4 Tm (CaMK4)	CAMK2A Tm (CAMK2A)	CAMK1G Tm (CAMK1G)	S-Score(35) [1]	ABL1 Tm (ABL)	remaining binding at 1 µM (PKNB(M.tuberculosis))	PIM1 Tm (PIM1)	DAPK1 Tm (DAPK1)	SYK Tm (SYK)	CK2alpha Tm (CK2a)	wild-type kinases inhibited by >90% ([1]; competitive binding assay at 1 μM)
NC(=O)c1cnc(N2CCC[C@H](N)C2)nc1Nc1cc(C(F)(F)F)cc(C(F)(F)F)c1 [Compound 9]	8.72 0C	3.17 0C	1.22 0C	-0.47 0C	7.06 0C	1.09 0C	16.18 0C								
CC(C)(C)c1cc(Nc2nc(N3CCC[C@H](N)C3)ncc2C(N)=O)cc(C(C)(C)C)c1 [Compound 14, (S)-2-(3-Aminopiperidin-1-yl)-4-((3,5-di-tert-butylphenyl)amino)pyrimidine-5-carboxamide]	4.82 0C	-0.72 0C	1.34 0C	-0.63 0C	6.39 0C	0.69 0C	10.22 0C	0.01	-0.28 0C	97%					
NC(=O)c1cnc(N2CCC[C@H](N)C2)nc1Nc1cccc(-c2ccccc2)c1 [Compound 12, (S)-4-([1,1′-Biphenyl]-3-ylamino)-2-(3-aminopiperidin-1-yl)pyrimidine-5-carboxamide Hydrochloride]	8.03 0C	5.67 0C	1.64 0C	0.32 0C	4.98 0C	2.35 0C	12.19 0C								
NCCNc1ncc(C(N)=O)c(Nc2cccc(C(F)(F)F)c2)n1 [Compound 1, 2-((2-Aminoethyl)amino)-4-((3-(trifluoromethyl)phenyl)amino)pyrimidine-5-carboxamide hydrochloride, reference compound]	4.05 0C	4.62 0C	0.11 0C	3.4 0C	1.34 0C	0.21 0C	4.11 0C		1.33 0C		1 0C	2.33 0C	7.51 0C	0.87 0C	
CS(=O)(=O)c1cccc(Nc2nc(N3CCC[C@H](N)C3)ncc2C(N)=O)c1 [Compound 11, (S)-2-(3-Aminopiperidin-1-yl)-4-((3-(methylsulfonyl)phenyl)amino)pyrimidine-5-carboxamide]	6.85 0C	3.75 0C	-0.09 0C	1.4 0C	4.49 0C	0.53 0C	7.26 0C								
CN(CCN)c1ncc(C(N)=O)c(Nc2cccc(C(F)(F)F)c2)n1 [Compound 3, 2-((2-Aminoethyl)(methyl)amino)-4-((3-(trifluoromethyl)phenyl)amino)pyrimidine-5-carboxamide Hydrochloride]		2.1 0C				0.49 0C	4.91 0C		1.75 0C		4.42 0C	3.2 0C		1.26 0C	
CC(C)(C)c1cccc(Nc2nc(N3CCC[C@H](N)C3)ncc2C(N)=O)c1 [Compound 10, (S)-2-(3-Aminopiperidin-1-yl)-4-((3-(tert-butyl)phenyl)amino)pyrimidine-5-carboxamide Hydrochloride]	5.43 0C	1.24 0C	0.3 0C	0.67 0C	3.78 0C	0.77 0C	9.24 0C								
CN(C)CCN(C)c1ncc(C(N)=O)c(Nc2cccc(C(F)(F)F)c2)n1 [Compound 5, 2-((2-(Dimethylamino)ethyl)(methyl)amino)-4-((3-(trifluoromethyl)phenyl)amino)pyrimidine-5-carboxamide Hydrochloride]						0.29 0C	2.78 0C								
CC(C)c1cc(Nc2nc(N3CCC[C@H](N)C3)ncc2C(N)=O)cc(C(C)C)c1 [Compound 15, (S)-2-(3-Aminopiperidin-1-yl)-4-((3,5-diisopropylphenyl)amino)pyrimidine-5-carboxamide]	8.08 0C	4.76 0C	1.96 0C	-0.2 0C	6.46 0C	2.19 0C	10.33 0C								
CNC(=O)c1cnc(NCCN)nc1Nc1cccc(C(F)(F)F)c1 [Compound 2, 2-((2-Aminoethyl)amino)-N-methyl-4-((3-(trifluoromethyl)phenyl)amino)pyrimidine-5-carboxamide, reference compound]						-0.22 0C	0.15 0C								
CC(C)(C#N)c1cccc(Nc2nc(N3CCC[C@H](N)C3)ncc2C(N)=O)c1 [Compound 13, (S)-2-(3-Aminopiperidin-1-yl)-4-((3-(2-cyanopropan-2-yl)phenyl)amino)pyrimidine-5-carboxamide]	6.82 0C	1.98 0C	0.32 0C	0.46 0C	4.38 0C	0.6 0C	6.35 0C								
CNCCN(C)c1ncc(C(N)=O)c(Nc2cccc(C(F)(F)F)c2)n1 [Compound 4, 2-(Methyl(2-(methylamino)ethyl)amino)-4-((3-(trifluoromethyl)phenyl)amino)pyrimidine-5-carboxamide Hydrochloride]						0.1 0C	1.13 0C								
NC(=O)c1cnc(N2CCC[C@H](N)C2)nc1Nc1cccc(C(F)(F)F)c1 [Compound 8, (S)-2-(3-Aminopiperidin-1-yl)-4-((3-(trifluoromethyl)phenyl)amino)pyrimidine-5-carboxamide Hydrochloride]		4.73 0C				1.08 0C	9.55 0C	0.12		84%					11
NC(=O)c1cnc(N2CCCC(N)C2)nc1Nc1cccc(C(F)(F)F)c1 (racemic) [Compound 6, (rac)-2-(3-Aminopiperidin-1-yl)-4-((3-(trifluoromethyl)phenyl)amino)pyrimidine-5-carboxamide Hydrochloride]						1.21 0C	8.82 0C								
